Data from patent US4229584A, “Ureylenebis(anionic substituted phenylene carbonyl)imino naphthalene sulfonic acids and naphthalene carboxylic acids and their salts” (American Cyanamid Company, priority 1978, dated 1980).
Where a name gives a salt, the structure may show the parent alone. Read-outs that look alike come from different tables or passages of the source.

Experiments:
[1] = test system: whole complement; test: In vivo complement inhibition in guinea pigs (whole complement of serum, capillary tube assay); set-up: species or system guinea pig; conditions: for change in vivo at 200 mg/kg: Cavia porcellus, ip
Source text: (§1) An active inhibitor protects C2 from C1 and C4; (ii) Test, Code 035 (C3-C9 inhibitor)--This test determines the ability of the late components of human complement (C3-C9) to lyse EAC 142 in the presence of appropriate dilutions of the test compound. An active inhibitor protects EAC 142 from lysis by human C3-C9; (iii) Test, Code 036 (C-Shunt inhibitor)--In this test human erythrocytes rendered fragile are lysed in autologous serum via the shunt pathway activated by cobra venom factor in the presence of appropriate dilutions of the test compound. Inhibition of the shunt pathway results in failure of lysis; (iv) Forssman Vasculitis Test--Here, the well known complement dependent lesion, Forssman vasculitis, is produced in guinea pigs by intradermal injection of rabbit anti-Forssman antiserum. The lesion is measured in terms of diameter, edema and hemorrhage and the extent to which a combined index of these is inhibited by prior intraperitoneal injection of the test compound at 200 mg/kg is then reported, unless otherwise stated; (v) Forssman Shock Test--Lethal shock is produced in guinea pigs by an i.v. injection of anti-Forssman antiserum and the harmonic mean death time of treated guinea pigs is compared with that of simultaneous controls; (vi) Complement Level Reduction Test--In this test, the above dosed guinea pigs, or others, are bled for serum and the complement level is determined in undiluted serum by the capillary tube method of U.S. Pat. No. 3,876,376 and compared to undosed control guinea pigs; and (vii) Cap 50 Test--Here, appropriate amounts of the test compound are added to a pool of guinea pig serum in vitro, after which the undiluted serum capillary tube assay referred to above is run. The concentration of compound inhibiting 50% is reported.
With reference to Table I, guinea pigs weighing about 300 g were dosed intravenously (i.v.) or intraperitoneally (i.p.) with 200 mg/kg of the test compound dissolved in saline and adjusted to pH 7-8. […] The serum was tested for whole complement using the capillary tube assay. Percent inhibition was calculated by comparison with simultaneous controls. The results appear in Table I together with results of tests, Code 026, 035, 036, Cap 50, percent inhibition and Forssman shock.

[2] = target: T1, human C1 (Homo sapiens, UniProt P09871); test: Test, Code 026 (C1 inhibitor): protection of fluid phase human C2 from activated human C1; type: biochemical; conditions: activity in wells, twofold serial dilution; higher well number indicates higher activity
T1 construct: substrate fluid phase human C2, in presence of C4
Source text: as §1
(§2) **Activity in wells, a serial dilution assay. Higher well number indicate
(§3) higher activity. The serial dilutions are twofold.

[3] = test system: shunt pathway; test: Test, Code 036 (C-Shunt inhibitor): lysis of human erythrocytes in autologous serum via shunt pathway activated by cobra venom factor; type: cell-based; conditions: activity in wells, twofold serial dilution; higher well number indicates higher activity
Source text: as §1, §2, §3

[4] = test system: late components of human complement (C3-C9); test: Test, Code 035 (C3-C9 inhibitor): lysis of EAC 142 by late components of human complement; type: cell-based; conditions: activity in wells, twofold serial dilution; higher well number indicates higher activity
Source text: as §1, §2, §3

[5] = 2 h, intraperitoneal, 200 mg/kg, 120 mins., read-out: In Vivo Activity (Guinea Pig) % Inhibition Intraperitoneal 120 mins.
[6] = 0.5 h, read-out: In Vivo Activity (Guinea Pig) % Inhibition Intraperitoneal 30 mins.
[7] = 1 h, read-out: In Vivo Activity (Guinea Pig) % Inhibition Intraperitoneal 60 mins.
[8] = 2 h, read-out: In Vivo Activity (Guinea Pig) % Inhibition Intraperitoneal 120 mins.
[9] = 0.5 h, intraperitoneal, 200 mg/kg, 30 mins., read-out: In Vivo Activity (Guinea Pig) % Inhibition Intraperitoneal 30 mins.
[10] = 1 h, intraperitoneal, 200 mg/kg, 60 mins., read-out: In Vivo Activity (Guinea Pig) % Inhibition Intraperitoneal 60 mins.

T1 sequence (P09871 16-688): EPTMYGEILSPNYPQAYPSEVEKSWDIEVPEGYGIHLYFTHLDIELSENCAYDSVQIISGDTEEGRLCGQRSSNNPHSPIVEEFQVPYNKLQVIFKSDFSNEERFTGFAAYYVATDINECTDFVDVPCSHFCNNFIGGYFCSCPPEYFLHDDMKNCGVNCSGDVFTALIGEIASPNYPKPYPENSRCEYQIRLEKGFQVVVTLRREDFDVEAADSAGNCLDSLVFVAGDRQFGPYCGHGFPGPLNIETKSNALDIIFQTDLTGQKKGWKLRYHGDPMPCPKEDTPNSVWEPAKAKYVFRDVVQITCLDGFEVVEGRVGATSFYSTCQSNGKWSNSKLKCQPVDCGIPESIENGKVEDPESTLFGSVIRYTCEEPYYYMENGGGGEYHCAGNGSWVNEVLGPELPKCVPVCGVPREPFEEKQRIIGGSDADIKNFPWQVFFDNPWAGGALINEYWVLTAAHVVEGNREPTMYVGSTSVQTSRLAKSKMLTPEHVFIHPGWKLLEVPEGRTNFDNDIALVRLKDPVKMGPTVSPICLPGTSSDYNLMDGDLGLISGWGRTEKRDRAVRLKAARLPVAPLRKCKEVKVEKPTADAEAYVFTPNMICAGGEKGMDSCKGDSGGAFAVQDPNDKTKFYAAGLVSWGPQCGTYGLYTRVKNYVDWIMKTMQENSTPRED
T1 sequence (P00736 18-705 partner): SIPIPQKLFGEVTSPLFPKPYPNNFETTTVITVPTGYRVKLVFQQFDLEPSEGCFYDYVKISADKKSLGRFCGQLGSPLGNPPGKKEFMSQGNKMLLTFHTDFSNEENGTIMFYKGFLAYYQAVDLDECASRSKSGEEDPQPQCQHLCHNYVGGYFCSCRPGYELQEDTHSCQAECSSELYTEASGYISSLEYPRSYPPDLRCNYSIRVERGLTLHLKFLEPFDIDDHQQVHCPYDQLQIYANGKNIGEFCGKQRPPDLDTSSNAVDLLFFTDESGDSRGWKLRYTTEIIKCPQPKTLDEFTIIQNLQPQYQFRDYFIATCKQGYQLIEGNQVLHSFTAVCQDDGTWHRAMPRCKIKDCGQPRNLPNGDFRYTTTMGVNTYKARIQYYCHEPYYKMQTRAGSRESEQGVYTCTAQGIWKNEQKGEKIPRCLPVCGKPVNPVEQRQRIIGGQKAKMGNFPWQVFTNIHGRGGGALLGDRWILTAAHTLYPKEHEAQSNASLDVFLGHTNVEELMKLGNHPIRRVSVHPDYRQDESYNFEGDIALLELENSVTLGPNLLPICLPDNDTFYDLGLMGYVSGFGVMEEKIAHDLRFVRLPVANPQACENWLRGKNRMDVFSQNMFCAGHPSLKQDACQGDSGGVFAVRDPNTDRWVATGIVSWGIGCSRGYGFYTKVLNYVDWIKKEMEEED
T1 sequence (P02745 23-245 partner): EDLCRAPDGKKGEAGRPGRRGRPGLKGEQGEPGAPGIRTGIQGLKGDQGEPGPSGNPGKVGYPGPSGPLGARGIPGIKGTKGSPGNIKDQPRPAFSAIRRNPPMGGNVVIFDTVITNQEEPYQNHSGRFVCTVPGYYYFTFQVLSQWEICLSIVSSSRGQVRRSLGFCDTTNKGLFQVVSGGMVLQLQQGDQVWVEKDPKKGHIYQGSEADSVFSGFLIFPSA
T1 sequence (P02746 28-253 partner): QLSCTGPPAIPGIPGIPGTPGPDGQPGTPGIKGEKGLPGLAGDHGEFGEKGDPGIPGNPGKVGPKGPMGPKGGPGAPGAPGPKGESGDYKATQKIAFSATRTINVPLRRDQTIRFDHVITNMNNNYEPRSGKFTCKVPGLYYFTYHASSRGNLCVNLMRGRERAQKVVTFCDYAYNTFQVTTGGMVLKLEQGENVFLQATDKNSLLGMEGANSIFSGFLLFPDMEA
T1 sequence (P02747 29-245 partner): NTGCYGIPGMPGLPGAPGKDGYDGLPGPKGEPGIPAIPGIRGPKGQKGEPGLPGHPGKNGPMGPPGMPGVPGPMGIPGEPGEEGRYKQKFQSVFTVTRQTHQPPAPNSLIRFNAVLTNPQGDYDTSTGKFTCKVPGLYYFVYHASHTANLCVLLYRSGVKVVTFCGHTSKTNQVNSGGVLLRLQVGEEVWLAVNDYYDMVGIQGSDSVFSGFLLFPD

O=C(Nc1cc(C(=O)O)cc(C(=O)Nc2cc(S(=O)(=O)O)cc3cc(S(=O)(=O)O)cc(O)c23)c1)Nc1cc(C(=O)O)cc(C(=O)Nc2cc(S(=O)(=O)O)cc3cc(S(=O)(=O)O)cc(O)c23)c1 [3,3'-(Carbonyldiimino)bis[5-[(8-hydroxy-3,6-disulfo-1-naphthalenyl)aminocarbonyl]]benzoic acid tetrasodium salt]
change in vivo at 200 mg/kg [1, 5]: -69%
C1 026* Wells [2]: +6 Wells

O=C(Nc1cc(C(=O)O)cc(C(=O)Nc2ccc(S(=O)(=O)O)c3cc(S(=O)(=O)O)cc(O)c23)c1)Nc1cc(C(=O)O)cc(C(=O)Nc2ccc(S(=O)(=O)O)c3cc(S(=O)(=O)O)cc(O)c23)c1 [3,3'-Ureylenebis{5-[(8-hydroxy-4,6-disulfo-1-naphthenyl)aminocarbonyl]-benzoic acid}tetrasodium salt]
change in vivo at 200 mg/kg [1, 5]: -94%
C1 026* Wells [2]: +4 Wells
Shunt Inhibition 036* Wells [3]: +2 Wells

O=C(Nc1ccc(C(=O)Nc2cc3ccccc3cc2C(=O)[O-])c(S(=O)(=O)[O-])c1)Nc1ccc(C(=O)Nc2cc3ccccc3cc2C(=O)[O-])c(S(=O)(=O)[O-])c1.[Na+].[Na+].[Na+].[Na+] [3,3'-{Ureylenebis[(2-sulfo-4,1-phenylene)carbonylimino]}di-2-naphthoic acid tetrasodium salt]
C-Late 035* Wells [4]: +3 Wells
C1 026* Wells [2]: N
Shunt Inhibition 036* Wells [3]: N

O=C(Nc1ccc(C(=O)Nc2ccc(S(=O)(=O)[O-])c3cc(S(=O)(=O)[O-])cc(O)c23)c(S(=O)(=O)[O-])c1)Nc1ccc(C(=O)Nc2ccc(S(=O)(=O)[O-])c3cc(S(=O)(=O)[O-])cc(O)c23)c(S(=O)(=O)[O-])c1.[Na+].[Na+].[Na+].[Na+].[Na+].[Na+] [4,4'-Ureylenebis[(2-sulfo-4,1-phenylenecarbonyl)imino]bis[5-hydroxy-1,7-naphthalenedisulfonic acid] hexasodium salt]
C-Late 035* Wells [4]: N
change in vivo at 200 mg/kg [1, 6]: 1%
change in vivo at 200 mg/kg [1, 7]: -3%
change in vivo at 200 mg/kg [1, 8]: -24%
C1 026* Wells [2]: +7 Wells
Shunt Inhibition 036* Wells [3]: +5 Wells

O=C(Nc1ccc(C(=O)Nc2ccc(S(=O)(=O)[O-])c3cccc(S(=O)(=O)O)c23)c(S(=O)(=O)[O-])c1)Nc1ccc(C(=O)Nc2ccc(S(=O)(=O)O)c3cccc(S(=O)(=O)O)c23)c(S(=O)(=O)[O-])c1.[Na+].[Na+].[Na+] [4,4'-{Ureylenebis[(2-sulfo-4,1-phenylenecarbonyl)imino]}-di-1,5-naphthalenedisulfonic acid trisodium salt]
C-Late 035* Wells [4]: N
change in vivo at 200 mg/kg [1, 6]: -10%
change in vivo at 200 mg/kg [1, 7]: 6%
change in vivo at 200 mg/kg [1, 8]: -6%
C1 026* Wells [2]: +7 Wells
Shunt Inhibition 036* Wells [3]: +1 Wells

O=C(Nc1ccc(C(=O)Nc2cc(S(=O)(=O)[O-])cc3cc(S(=O)(=O)[O-])ccc23)c(S(=O)(=O)[O-])c1)Nc1ccc(C(=O)Nc2cc(S(=O)(=O)[O-])cc3cc(S(=O)(=O)[O-])ccc23)c(S(=O)(=O)[O-])c1.[Na+].[Na+].[Na+].[Na+].[Na+].[Na+] [4,4'-{Ureylenebis[(2-sulfo-4,1-phenylenecarbonyl)imino]}-di-2,7-naphthalenedisulfonic acid hexasodium salt]
Shunt Inhibition 036* Wells [3]: N

O=C(Nc1ccc(C(=O)Nc2cc(S(=O)(=O)O)cc3cc(S(=O)(=O)O)cc(O)c23)c(S(=O)(=O)O)c1)Nc1ccc(C(=O)Nc2cc(S(=O)(=O)O)cc3cc(S(=O)(=O)O)cc(O)c23)c(S(=O)(=O)O)c1 [4,4'-{Ureylenebis[(2-sulfo-4,1-phenylenecarbonyl)imino]}bis-[5-hydroxy-2,7-naphthalenedisulfonic acid]hexasodium salt]
change in vivo at 200 mg/kg [1, 9]: -35%
change in vivo at 200 mg/kg [1, 10]: -41%
change in vivo at 200 mg/kg [1, 5]: -74%
In Vivo Activity (Guinea Pig) % Inhibition Intravenous 2 mins. ([1]; 200 mg/kg): -98%
In Vivo Activity (Guinea Pig) % Inhibition Intravenous 30 mins. ([1]; 200 mg/kg, 30 mins.): -81%
In Vivo Activity (Guinea Pig) % Inhibition Intravenous 120 mins. ([1]; 200 mg/kg, 120 mins.): -63%

Cc1ccc(NC(=O)Nc2ccc(C)c(C(=O)Nc3ccc(S(=O)(=O)[O-])c4cc(S(=O)(=O)[O-])cc(O)c34)c2)cc1C(=O)Nc1ccc(S(=O)(=O)[O-])c2cc(S(=O)(=O)[O-])cc(O)c12.[Na+].[Na+].[Na+].[Na+] [4,4'-{Ureylenebis[(6-methyl-3,1-phenylenecarbonyl)imino]}-bis[5-hydroxy-1,7-naphthalenedisulfonic acid], tetrasodium salt]
Shunt Inhibition 036* Wells [3]: +2 Wells

O=C(Nc1ccc(C(=O)Nc2cccc3cc(S(=O)(=O)O)cc(O)c23)c(S(=O)(=O)O)c1)Nc1ccc(C(=O)Nc2cccc3cc(S(=O)(=O)O)cc(O)c23)c(S(=O)(=O)O)c1 [5,5'-{Ureylenebis[(2-sulfo-4,1-phenylenecarbonyl)imino]}-bis[4-hydroxy-2-naphthalenesulfonic acid]tetrasodium salt]
change in vivo at 200 mg/kg [1, 9]: -26%
change in vivo at 200 mg/kg [1, 10]: 0%
change in vivo at 200 mg/kg [1, 5]: -58%
C1 026* Wells [2]: +2 Wells

O=C(Nc1ccc(S(=O)(=O)[O-])c(C(=O)Nc2cc(S(=O)(=O)[O-])cc3cc(S(=O)(=O)[O-])cc(S(=O)(=O)[O-])c23)c1)Nc1ccc(S(=O)(=O)[O-])c(C(=O)Nc2cc(S(=O)(=O)[O-])cc3cc(S(=O)(=O)[O-])cc(S(=O)(=O)[O-])c23)c1.[Na+].[Na+].[Na+].[Na+].[Na+].[Na+].[Na+].[Na+] [8,8'-[Carbonylbis[imino[(-6-sulfo-3,1-phenylene)]carbonylimino]]-bis-1,3,6-naphthalenetrisulfonic acid octasodium salt]
change in vivo at 200 mg/kg [1, 6]: -23%
change in vivo at 200 mg/kg [1, 7]: -58%
change in vivo at 200 mg/kg [1, 8]: -71%
C1 026* Wells [2]: +7 Wells
Shunt Inhibition 036* Wells [3]: +1 Wells

O=C(Nc1ccc(C(=O)Nc2cc(S(=O)(=O)[O-])cc3cc(S(=O)(=O)[O-])cc(S(=O)(=O)[O-])c23)cc1)Nc1ccc(C(=O)Nc2cc(S(=O)(=O)[O-])cc3cc(S(=O)(=O)[O-])cc(S(=O)(=O)[O-])c23)cc1.[Na+].[Na+].[Na+].[Na+].[Na+].[Na+] [8,8'-[Ureylenebis(4,1-phenylenecarbonylimino)]di-1,3,6-naphthalenetrisulfonic acid hexasodium salt]
change in vivo at 200 mg/kg [1, 6]: -18%
change in vivo at 200 mg/kg [1, 7]: -21%
change in vivo at 200 mg/kg [1, 8]: -33%
In Vivo Activity (Guinea Pig) % Inhibition Intravenous 2 mins. ([1]; 200 mg/kg): -71%
In Vivo Activity (Guinea Pig) % Inhibition Intravenous 30 mins. ([1]; 200 mg/kg, 30 mins.): -28%
In Vivo Activity (Guinea Pig) % Inhibition Intravenous 120 mins. ([1]; 200 mg/kg, 120 mins.): -16%
C1 026* Wells [2]: +4 Wells

O=C(Nc1ccc(C(=O)Nc2ccc(S(=O)(=O)[O-])c3cc(S(=O)(=O)[O-])cc(S(=O)(=O)[O-])c23)c(S(=O)(=O)[O-])c1)Nc1ccc(C(=O)Nc2ccc(S(=O)(=O)[O-])c3cc(S(=O)(=O)[O-])cc(S(=O)(=O)[O-])c23)c(S(=O)(=O)[O-])c1.[Na+].[Na+].[Na+].[Na+].[Na+].[Na+].[Na+].[Na+] [8,8'-{Ureylenebis[(2-sulfo-4,1-phenylenecarbonyl)imino]}di-1,3,5-naphthalenetrisulfonic acid octasodium salt]
C-Late 035* Wells [4]: +1 Wells
change in vivo at 200 mg/kg [1, 6]: -32%
change in vivo at 200 mg/kg [1, 7]: -31%
change in vivo at 200 mg/kg [1, 8]: -51%
In Vivo Activity (Guinea Pig) % Inhibition Intravenous 2 mins. ([1]; 200 mg/kg): -89%
In Vivo Activity (Guinea Pig) % Inhibition Intravenous 30 mins. ([1]; 200 mg/kg, 30 mins.): -45%
In Vivo Activity (Guinea Pig) % Inhibition Intravenous 120 mins. ([1]; 200 mg/kg, 120 mins.): -29%

O=C(Nc1ccc(C(=O)Nc2cc(S(=O)(=O)O)cc3cc(S(=O)(=O)O)cc(S(=O)(=O)O)c23)c(S(=O)(=O)O)c1)Nc1ccc(C(=O)Nc2cc(S(=O)(=O)O)cc3cc(S(=O)(=O)O)cc(S(=O)(=O)O)c23)c(S(=O)(=O)O)c1 [8,8'-{Ureylenebis{[(2-sulfo-4,1-phenylene)carbonyl]imino}}-1,3,6-naphthalenetrisulfonic acid octasodium salt]
change in vivo at 200 mg/kg [1, 9]: 4%
change in vivo at 200 mg/kg [1, 10]: 17%
change in vivo at 200 mg/kg [1, 5]: -8%
In Vivo Activity (Guinea Pig) % Inhibition Intravenous 2 mins. ([1]; 200 mg/kg): -85%
In Vivo Activity (Guinea Pig) % Inhibition Intravenous 30 mins. ([1]; 200 mg/kg, 30 mins.): -53%
In Vivo Activity (Guinea Pig) % Inhibition Intravenous 120 mins. ([1]; 200 mg/kg, 120 mins.): -24%
